Where two headings read alike, the source gives them in different places.
Key:
peritoneal macrophages = experiment: Release (secretion) of lysosomal enzymes from macrophages during phagocytosis; assay type: cell-based; details: Rattus norvegicus, Peritoneal macrophage, 0.5 h, serum-treated zymosan, 37° C., 30 minutes
Method: (§1) (2) Assay of release of lysosomal enzymes from polymorphonuclear (PMN) leukocytes or macrophages during phagocytosis
Preparation of rat peritoneal macrophages was carried out according to the method described by D. Gemsa et al in "Journal of Clinical Investigation",vol. 52, 812 (1973).
(§2) Lysosomal enzymes were released from PMN leukocytes exposed to homologous serum-treated zymosan particles (0.5-3 μ in diameter, Sigma) according to the method described by M. Nakanishi et al in "Yakugaku Zasshi (Journal of the Pharmaceutical Society of Japan)", vol. 95, 672 (1975).
(§3) The effects of test compounds on the enzyme release were studied by determining the release of lysosomal marker enzymes such as aryl sulfatase.
(§4) The test compounds were dissolved in ethanol. The test solution (10 μl) or solvent (control, 10 μl) was added to a 10-ml conical flask containing 2.0 ml of the PMN leukocyte or macrophage suspension. The mixture was kept at 25° C. for 10 minutes. Immediately after the addition of 50 μl of serum-treated zymosan particles (10 mg/ml) to the above mixture, 1.0-ml aliquots were removed to determine the initial activity of free enzymes in the supernatant. The residual mixtures were incubated at 37° C. for 30 minutes with shaking at an agitation cycle of 75/min, and centrifuged at 350 g for 10 minutes at 4° C. The supernatant thus obtained was used for the measurement of the marker enzymes released from PMN leukocytes or macrophages during phagocytosis. The total activity of these enzymes was assayed using the 27,000 g supernatant obtained by centrifuging the PMN leukocytes or macrophages incubated at 37° C. for 30 minutes in 0.2% (v/v) Triton X-100 - Hanks' solution.

[1] = system: Adjuvant induced arthritis; experiment: Adjuvant induced arthritis in the rat (prophylactic effect); assay type: in vivo, rat (male Wistar)
Method: (3) Adjuvant induced arthritis in the rat
The test was performed according to the method described by B. B. Newbould in "British Journal of Pharmacology", vol. 21, 127 (1963).
Male Wistar rats weighing 180 to 210 g were divided into groups of 8 animals each. The arthritic syndrome was induced by an intradermal injection into the right hind paw of 0.1 ml of a suspension of dead tubercle bacilli (6 mg/ml) in liquid paraffin. Swellings in the hind feet were measured with the fluid displacement method at 4, 10, 15, 18, 21 and 28 days after the adjuvant inoculation. Compounds tested were orally administered daily from the adjuvant inoculation day (day 1) to day 20.

Leukocyte migration = Leukocyte migration in the rat (CMC pouch); assay type: in vivo, rat (male Donryu); details: compound administered into the CMC pouch; for Leukocyte Migration ED50, 5 hr: 5 hr after CMC injection; for Leukocyte Migration ED50, 7 hr: 7 hr after CMC injection
Method: (1) Leukocyte migration in the rat
The test was performed according to the method described by H. Ishikawa et al in "Yakugaku Zasshi (Journal of the Pharmaceutical Society of Japan)", vol.
Male Donryu rats weighing about 150 g were divided into groups of 4 to 5 animals each. Five ml of 2% suspension of carboxymethylcellulose (CMC) in physiological saline, which was treated by autoclaving at 120° C. for 15 minutes, was injected subcutaneously in the supra-scapular area. Five and 7 hours later, 0.1 ml of fluid in the CMC pouch was collected and mixed with 3 ml of 0.02% brilliant cresyl blue solution in phosphate buffer (0.002M, pH 7.0). The suspension was put in a Burker chamber and the emigrating leukocytes were counted under a microscope (magnification 400x). The percent inhibition was calculated as compared with the count in the control group. Compounds tested were administered into the CMC pouch immediately after the injection of the CMC suspension.

[2] = system: polymorphonuclear (PMN) leukocytes; experiment: Release (secretion) of lysosomal enzymes from PMN leukocytes during phagocytosis; assay type: cell-based; details: Rattus norvegicus, 0.5 h, serum-treated zymosan, 37° C., 30 minutes
Method: as §1
Preparation of rat PMN leukocytes was carried out according to the method described by M. Nakanishi et al in "Yakugaku Zasshi (Journal of the Pharmaceutical Society of Japan)", vol. 95, 1027 (1975).
as §2, §3, §4

[3] = Macrophage, read-out: Secretion of Lysosomal Enzyme IC20, Macrophage
[4] = oral, daily from day 1 to day 20, read-out: Prophylactic Effect on Adjuvant Arthritis MED (minimum effective dose)
[5] = PMN leukocyte, read-out: Secretion of Lysosomal Enzyme IC20, PMN leukocyte
[6] = read-out: Secretion of Lysosomal Enzyme IC20, Macrophage, Macrophage
[7] = po, read-out: Prophylactic Effect on Adjuvant Arthritis MED (minimum effective dose)
[8] = Leukocyte, read-out: Secretion of Lysosomal Enzyme IC20, PMN leukocyte, PMN leukocyte

SMILES | IC20 (peritoneal macrophages; [3]) | minimal effective dose [1, 4] | Leukocyte Migration ED50, 5 hr (Leukocyte migration) | Leukocyte Migration ED50, 7 hr (Leukocyte migration) | IC20 [2, 5] | IC20 (peritoneal macrophages; [6]) | minimal effective dose [1, 7] | IC20 [2, 8]
CN(C)CCNC(=S)SC(C)(C)C(NC(=O)c1ccc(Cl)cc1)C(=O)O (stereo not drawn) [Test Compound E, n-(p-Chlorobenzoyl)-S-(2-dimethylaminoethylthiocarbamoyl)-penicillamine] | 100 nM | 10 mg/kg | 2.7 mg/rat | 3.6 mg/rat | 1000 nM |  |  | 
CN(C)CCN1C(=O)C(NC(=O)c2ccc(NS(C)(=O)=O)cc2)C(C)(C)SC1=S.Cc1ccc(S(=O)(=O)O)cc1 (stereo not shown) [Test Compound D, 3-(2-dimethylaminoethyl)-5-(p-methanesulfonamidobenzamido)-6,6-dimethyl-2-thioxo-tetrahydro-2H-1,3-thiazin-4-one p-toluenesulfonate] |  |  | 2 mg/rat | 5 mg/rat |  | 500 nM | 10 mg/kg | 300 nM
CN(C)CCN1C(=O)C(NC(=O)c2ccc(Cl)cc2)C(C)(C)SC1=S.Cc1ccc(S(=O)(=O)O)cc1 (stereo not shown) [Test Compound C, 5-(p-Chlorobenzamido)-3-(2-dimethylaminoethyl)-6,6-dimethyl-2-thioxotetrahydro-2H-1,3-thiazin-4-one p-toluenesulfonate] |  |  | 3.5 mg/rat | 5 mg/rat |  | 100 nM |  | 1000 nM
CC1(C)SC(=S)N(Cc2ccccc2)C(=O)C1NC(=O)c1ccc(Cl)cc1 (stereo not shown) [Test Compound A, 3-benzyl-5-(p-chlorobenzamido)-6,6-dimethyl-2-thioxo-tetrahydro-2H-1,3-thiazin-4-one] | > 10000 nM | 50 mg/kg | 15 mg/rat | 15 mg/rat | 200 nM |  |  | 
CC(C)(S)[C@@H](N)C(=O)O [D-Penicillamine, D-penicillamine, reference compound] |  |  | > 40 mg/rat | > 40 mg/rat |  | 1000 nM | > 200 mg/kg | 10000 nM
CC(=O)Oc1ccccc1C(=O)O [AcetylsalicylicAcid, Acetylsalicylic Acid, reference compound] |  |  | 20 mg/rat | > 25 mg/rat |  | 100000 nM | 100 mg/kg | 100 nM
CN(C)CCN1C(=O)C(NC(=O)c2ccc(Cl)cc2)C(C)(C)SC1=S (stereo not shown) [Test Compound B, 5-(p-Chlorobenzamido)-3-(2-dimethylaminoethyl)-6,6-dimethyl-2-thioxotetrahydro-2H-1,3-thiazin-4-one] | 200 nM | 25 mg/kg | 2 mg/rat | 2 mg/rat | 500 nM |  |  | 

Reference: US4169899A, “Penicillamine compounds” (Yoshitomi Pharmaceutical Industries, Ltd., priority 1977, dated 1979)
